This series relates to Yap1 mRNA. In words: Antisense inhibition of human Yap1 in A-431 cells by cEt gapmers, single dose (Example 2, RTS4814). The format is cell-based. In short, it runs like this:
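Yap1 mRNA levels, by real-time RT-PCR (RTS4814) and corrected for total RNA via RIBOGREEN, are given as percent of untreated cells. Gapmers (16-mer, cEt wings, phosphorothioate, 5-methylC) were delivered without transfection at 2,000 nM to A-431 cells for about 48 hours.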

[1] abbreviates: Table 21, Yap1 mRNA, percent of untreated control, 3-10-3 cEt gapmers targeting SEQ ID NO.: 1 and 2.
Where [2] appears, read: Table 25, Yap1 mRNA as percent of untreated control, 3-10-3 cEt gapmers targeting SEQ ID NO.: 1, and 2.
The mark [3] stands for this setting: Table 5, A-431 cells, 5,000 cells per well, free uptake, 2,000 nM modified oligonucleotide, approx. 48 hours, RTS4814, normalized to RIBOGREEN, Yap1 mRNA relative to untreated control cells.
Setting [4] is: A-431 cells, 5,000 cells per well, free uptake, 2,000 nM modified oligonucleotide, approx. 48 hours, RTS4814, normalized to RIBOGREEN, Table 4, asterisk (*) = targets amplicon region of primer probe set.
The mark [5] stands for this setting: Table 23, Yap1 mRNA as percent of untreated control, 3-10-3 cEt gapmers, single dose.
Where [6] appears, read: Table 22, Yap1 mRNA as percent of untreated control, 3-10-3 cEt gapmers, single dose.
Setting [7] is: Table 18, A-431 cells, 5,000 cells per well, free uptake, 2,000 nM modified oligonucleotide, approx. 48 hours, RTS4814, normalized to RIBOGREEN, Yap1 mRNA as percent of untreated control.
Setting [8] is: Table 20, Yap1 mRNA, percent of untreated control, 3-10-3 cEt gapmers targeting SEQ ID NO.: 1 and 2.
[9] abbreviates: Table 24, Yap1 mRNA as percent of untreated control, 3-10-3 cEt gapmers targeting SEQ ID NO.: 1, and 2.
Where [10] appears, read: Table 19, A-431 cells, 5,000 cells per well, free uptake, 2,000 nM modified oligonucleotide, approx. 48 hours, RTS4814, normalized to RIBOGREEN, Yap1 mRNA as percent of untreated control.
[11] abbreviates: Table 32, Yap1 mRNA, percent of untreated control, 3-10-3 cEt gapmers targeting SEQ ID NO.: 1, and 2.
[12] abbreviates: Table 6, A-431 cells, 5,000 cells per well, free uptake, 2,000 nM modified oligonucleotide, approx. 48 hours, RTS4814, normalized to RIBOGREEN, Yap1 mRNA relative to untreated control cells.
Where [13] appears, read: Yap1 mRNA as percent of untreated control, A-431 cells, 3-10-3 cEt gapmers targeting SEQ ID NO.: 1, and 2, Table 30.

The values that follow come from patent publication US11214803B2, “Modulators of YAP1 expression” (Ionis Pharmaceuticals, Inc., priority 2019, dated 2022).

Strand notation (5' to 3'): a small letter for the sugar, then the base; units joined by * are phosphorothioate-linked, units joined directly phosphodiester-linked; [ ] holds rarer units or linkages, { } end groups; capitals alone tell only the bases. k = constrained ethyl (cEt); [5mC] = 5-methylcytosine; d = 2'-deoxy (DNA)

On to “1075655 (k[5mC]*kT*kA*dT*dT*dA*dA*dG*dA*d[5mC]*dG*dA*dA*kT*k[5mC]*k[5mC]; antisense) [Compound 1075655]”, for which the “YAP1 (% UTC)” value under setting [1] was 38 % UTC.
Regarding “1074155 (antisense k[5mC]*k[5mC]*k[5mC]*dG*dG*d[5mC]*dT*d[5mC]*d[5mC]*dA*d[5mC]*dG*dG*kG*k[5mC]*k[5mC]) [Compound 1074155]”, the “YAP1 (% UTC)” value under setting [2] came to 87 % UTC.
As for “716515 (antisense kT*kA*kA*dG*d[5mC]*dT*dA*dA*dA*dG*d[5mC]*dT*dA*kA*kT*k[5mC]) [Compound 716515]”, under setting [3], the “YAP1 (% UTC)” value was 123 % UTC.
With “1075275 (antisense k[5mC]*kT*kA*dG*dA*dA*dA*dG*dG*d[5mC]*d[5mC]*dA*dT*kG*kT*kA) [Compound 1075275]”, the “YAP1 (% UTC)” value under setting [2] is on record as 76 % UTC.
With “716421 (kT*kA*kT*dT*dA*dG*d[5mC]*d[5mC]*dT*dG*dA*dA*dA*kA*k[5mC]*kT; antisense) [Compound 716421]”, the “YAP1 (% UTC)” value under setting [4] worked out at 86 % UTC.
Turning to “1074409 (antisense kG*kG*kA*dT*dT*dA*dA*dA*dG*dT*dA*dT*d[5mC]*kT*kT*kG) [Compound 1074409]”, the “YAP1 (% UTC)” value under setting [5] came out at 6 % UTC.
Take “1075560 (kG*k[5mC]*kT*dA*dA*dA*dT*dA*dA*dA*dG*dG*dT*kT*kA*k[5mC]; antisense) [Compound 1075560]”: the “YAP1 (% UTC)” value under setting [6] is recorded as 86 % UTC.
With “1074916 (antisense kA*kA*kG*dT*dT*dA*d[5mC]*dA*dT*d[5mC]*d[5mC]*d[5mC]*dG*kA*kG*kT) [Compound 1074916]”, under setting [7], the “YAP1 (% UTC)” value was 75 % UTC.
As to “1076422 (kG*kA*kA*dT*dT*dA*dT*dG*dA*d[5mC]*d[5mC]*dT*d[5mC]*k[5mC]*kA*kT; antisense) [Compound 1076422]”, the “YAP1 (% UTC)” value under setting [8] was 13 % UTC.
For “1074537 (antisense k[5mC]*kA*kG*dT*dA*dA*dT*dA*dG*d[5mC]*dT*d[5mC]*dT*kT*kT*k[5mC]) [Compound 1074537]”, the “YAP1 (% UTC)” value under setting [5] worked out at 3 % UTC.
Turning to “1075754 (k[5mC]*kT*kT*dA*dA*dA*dT*dG*dG*d[5mC]*dA*d[5mC]*dA*kG*kT*kT; antisense) [Compound 1075754]”, the “YAP1 (% UTC)” value under setting [9] worked out at 20 % UTC.
As for “716532 (antisense k[5mC]*kA*kA*dG*dA*dA*dG*d[5mC]*dA*dG*dT*dT*dA*kA*kG*k[5mC]) [Compound 716532]”, the “YAP1 (% UTC)” value under setting [4] is given as 70 % UTC.
As for “1074405 (antisense kG*k[5mC]*k[5mC]*dT*dG*dA*dA*dA*dA*d[5mC]*dT*dG*d[5mC]*kA*kA*k[5mC]) [Compound 1074405]”, under setting [10], the “YAP1 (% UTC)” value amounted to 27 % UTC.
Take “1076295 (kG*kT*kA*dT*dA*dT*dT*dA*dG*dT*dG*d[5mC]*d[5mC]*k[5mC]*k[5mC]*k[5mC]; antisense) [Compound 1076295]”: under setting [1], the “YAP1 (% UTC)” value came to 2 % UTC.
As to “1074181 (antisense k[5mC]*k[5mC]*k[5mC]*dG*dG*dG*dA*dT*d[5mC]*d[5mC]*dA*dT*dG*kG*k[5mC]*kT) [Compound 1074181]”, the “YAP1 (% UTC)” value under setting [10] stood at 107 % UTC.
Consider “1076168 (k[5mC]*kA*kA*dA*dT*dT*dT*dA*d[5mC]*dA*d[5mC]*d[5mC]*dA*k[5mC]*k[5mC]*kG; antisense) [Compound 1076168]”, for which the “YAP1 (% UTC)” value under setting [6] was 23 % UTC.
On to “1075794 (k[5mC]*kA*kT*dA*dA*dT*dG*dA*dA*dT*dG*dT*dG*kG*kG*kT; antisense) [compound 1075794]”, for which the “YAP1 (% UTC)” value under setting [11] was determined as 38 % UTC.
On to “1074449 (k[5mC]*kT*kA*dA*dT*dG*dA*dT*dA*dG*d[5mC]*dA*d[5mC]*kT*kA*kG; antisense) [compound 1074449]”, for which the “YAP1 (% UTC)” value (Yap1 mRNA as percent of untreated control, A-431 cells, 3-10-3 cEt gapmers targeting SEQ ID NO.: 1, and 2, Table 31) came to 36 % UTC.
For the substance “1076327 (kG*kA*kT*dA*dA*dG*d[5mC]*dA*dA*dG*dG*dT*dT*k[5mC]*kT*k[5mC]; antisense) [Compound 1076327]”, the “YAP1 (% UTC)” value under setting [1] is reported as 7 % UTC.
In the case of “1076262 (kA*kG*kA*d[5mC]*dA*dA*dT*dA*dG*dT*d[5mC]*dT*dG*kG*kG*k[5mC]; antisense) [Compound 1076262]”, the “YAP1 (% UTC)” value under setting [8] turned out to be 41 % UTC.
“716562 (kG*k[5mC]*k[5mC]*dT*dG*d[5mC]*d[5mC]*dG*dA*dA*dG*d[5mC]*dA*kG*kT*kT) [Compound 716562]”: the “YAP1 (% UTC)” value (Table 7 (gapmers targeting SEQ ID NO: 3 and 4), A-431 cells, free uptake, 2,000 nM, approximately 48 hours, RTS4814) is on record as 103 % UTC.
For the substance “1074611 (DNA kT*kA*kG*d[5mC]*dT*dT*dA*dT*dA*dT*dT*dG*dA*kA*kG*kA) [compound 1074611]”, the “YAP1 (% UTC)” value (Table 33, Yap1 mRNA, percent of untreated control, 3-10-3 cEt gapmers targeting SEQ ID NO.: 1, and 2) is recorded as 19 % UTC.
As to “716402 (kA*kT*kT*dT*dT*dG*dA*dG*dT*d[5mC]*d[5mC]*d[5mC]*dA*k[5mC]*k[5mC]*kA; antisense) [Compound 716402]”, under setting [12], the “YAP1 (% UTC)” value came to 85 % UTC.
On to “1074891 (antisense kT*kG*kA*dA*dG*dT*dT*dT*dA*dG*d[5mC]*d[5mC]*dT*kG*kA*kA) [Compound 1074891]”, for which, under setting [2], the “YAP1 (% UTC)” value was found to be 31 % UTC.
As for “1076393 (k[5mC]*kT*kT*dT*dA*d[5mC]*dT*dT*dA*d[5mC]*dT*dG*dG*kT*kG*kG; antisense) [Compound 1076393]”, the “YAP1 (% UTC)” value under setting [5] was 4 % UTC.
For the substance “1075783 (k[5mC]*kT*kT*dA*dA*dT*dT*dT*dA*d[5mC]*d[5mC]*dT*dG*kA*kA*k[5mC]; antisense) [Compound 1075783]”, the “YAP1 (% UTC)” value under setting [1] is 36 % UTC.
For “1074992 (antisense k[5mC]*kA*kA*dT*dT*dA*dT*dT*dT*dG*dA*d[5mC]*dT*k[5mC]*k[5mC]*k[5mC]) [compound 1074992]”, the “YAP1 (% UTC)” value under setting [13] worked out at 63 % UTC.
In the case of “1074856 (antisense kT*kT*kT*dG*dA*d[5mC]*dA*dA*dG*dT*dG*dT*dG*k[5mC]*kA*kT) [Compound 1074856]”, the “YAP1 (% UTC)” value under setting [6] stood at 15 % UTC.
As to “1075184 (k[5mC]*kA*kA*dG*dA*dA*d[5mC]*dA*d[5mC]*dT*dG*dG*dT*kA*kT*kT; antisense) [compound 1075184]”, the “YAP1 (% UTC)” value under setting [13] is 67 % UTC.
For “1074500 (k[5mC]*kT*kA*d[5mC]*dA*dA*dT*dA*dA*d[5mC]*d[5mC]*dA*dT*k[5mC]*k[5mC]*k[5mC]; antisense) [Compound 1074500]”, the “YAP1 (% UTC)” value under setting [7] is 10 % UTC.
Consider “1075684 (kT*k[5mC]*kT*dG*dA*dA*dA*dA*dA*dG*dT*dT*dA*kT*kG*k[5mC]; antisense) [Compound 1075684]”, for which, under setting [7], the “YAP1 (% UTC)” value is 78 % UTC.
For “1075274 (antisense kA*kA*kT*dA*dA*dT*d[5mC]*d[5mC]*dA*dG*d[5mC]*d[5mC]*dT*kA*kG*kG) [Compound 1075274]”, the “YAP1 (% UTC)” value under setting [9] came out at 86 % UTC.
Regarding “716489 (kA*kG*kT*dT*dA*dA*dT*dT*d[5mC]*dA*dT*dG*d[5mC]*kT*k[5mC]*kG; antisense) [Compound 716489]”, the “YAP1 (% UTC)” value under setting [12] came out at 23 % UTC.
Still for that read-out and setting: for “716390 (kT*k[5mC]*kT*d[5mC]*dT*dG*dG*dT*dT*d[5mC]*dA*dT*dG*kG*k[5mC]*kA; antisense) [Compound 716390]” the value was 66 % UTC; for “716366 (k[5mC]*kA*kG*dG*dT*d[5mC]*dG*dG*dT*d[5mC]*dT*d[5mC]*d[5mC]*kG*kA*kG; antisense) [Compound 716366]”, 95 % UTC.
As for “1074928 (antisense kA*kT*kA*d[5mC]*dA*dA*d[5mC]*dA*dG*dG*d[5mC]*d[5mC]*dT*kG*k[5mC]*kA) [compound 1074928]”, the “YAP1 (% UTC)” value under setting [13] is on record as 83 % UTC.
For the substance “716461 (kA*kT*kA*dA*dA*d[5mC]*dT*dA*d[5mC]*dT*dA*dG*dT*k[5mC]*kA*kT; antisense) [Compound 716461]”, the “YAP1 (% UTC)” value under setting [3] came out at 123 % UTC.
With “1074889 (antisense kA*kG*kT*dT*dT*dA*dG*d[5mC]*d[5mC]*dT*dG*dA*dA*kG*k[5mC]*kA) [Compound 1074889]”, the “YAP1 (% UTC)” value under setting [5] turned out to be 42 % UTC.
On to “1076232 (kG*kT*kA*dA*dT*dA*d[5mC]*dA*d[5mC]*d[5mC]*dA*dT*dT*kT*kG*kG; antisense) [Compound 1076232]”, for which, under setting [6], the “YAP1 (% UTC)” value amounted to 15 % UTC.
In the case of “1075026 (antisense k[5mC]*kT*kT*dA*dA*dA*dA*dG*d[5mC]*d[5mC]*dA*dT*d[5mC]*kT*kA*k[5mC]) [compound 1075026]”, the “YAP1 (% UTC)” value under setting [11] is listed as 55 % UTC.
“1076292 (kT*kA*kT*dT*dA*dT*dT*dG*dA*dG*dT*dT*dA*kT*k[5mC]*k[5mC]; antisense) [Compound 1076292]”: the “YAP1 (% UTC)” value under setting [7] is 27 % UTC.
“1076432 (k[5mC]*kA*kT*dT*dA*dG*dT*dA*dT*dT*d[5mC]*dA*d[5mC]*kT*kG*kT; antisense) [compound 1076432]”: under setting [13], the “YAP1 (% UTC)” value turned out to be 18 % UTC.
